# Measurements published in ChEMBL document CHEMBL1201862, “PubChem BioAssay data set” (2004).
# Activity calls are given as the source filed them.
# How the values were obtained:
# [1] = inhibitors of clade B AD8 Env fusion, dose response, cell-based, cherry-pick (AID 652062); assay type: functional;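 note: luciferase signal from cell-cell fusion driven by HIV-1 clade B AD8 Env; potency is for inhibitors of fusion seen as a drop in luminescence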
# [2] = CEM21 lymphoblast cell cytotoxicity, dose response, cytotoxicity control for viral fusion inhibitor project, CellTiter-Glo luminescence, cherry-picked (AID 652042); assay type: functional, cell-based;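 note: potency for signal decrease meaning cytotoxicity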
# [3] = inhibitors of HIV Env-driven cell fusion, dose response, cherry-pick (AID 652057); assay type: functional, cell-based
# [4] = off-target signal loss in HeLa-CEM21 co-culture – HeLa F-luc CTL cells, cherry-picked, counter-screen for HIV-1 Env fusion inhibitor project, dose response (AID 652040); assay type: functional, cell-based;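 note: potency for signal decrease marking cytotoxic or nonspecific inhibition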
# [5] = ZM109 Env clade C HIV-1 fusion inhibitors, dose response, HeLa effector, CEM target cells, luciferase, cherry-pick (AID 652058); assay type: functional, cell-based
# [6] = target: T1, Aryl hydrocarbon receptor (Homo sapiens, UniProt P35869); assay: Luminescence-based cell-based high throughput dose response assay for activators of the Aryl Hydrocarbon Receptor (AHR). [Related pubchem assays: 2796 (Primary screen (AHR activators in singlicate)), 2845 (Confirmation screen (AHR activators in triplicate)), 434939 (Counterscreen (PXR activators in triplicate)), 2804 (Summary (AHR activators))]; assay type: ADME
# T1 sequence (P35869 whole entry): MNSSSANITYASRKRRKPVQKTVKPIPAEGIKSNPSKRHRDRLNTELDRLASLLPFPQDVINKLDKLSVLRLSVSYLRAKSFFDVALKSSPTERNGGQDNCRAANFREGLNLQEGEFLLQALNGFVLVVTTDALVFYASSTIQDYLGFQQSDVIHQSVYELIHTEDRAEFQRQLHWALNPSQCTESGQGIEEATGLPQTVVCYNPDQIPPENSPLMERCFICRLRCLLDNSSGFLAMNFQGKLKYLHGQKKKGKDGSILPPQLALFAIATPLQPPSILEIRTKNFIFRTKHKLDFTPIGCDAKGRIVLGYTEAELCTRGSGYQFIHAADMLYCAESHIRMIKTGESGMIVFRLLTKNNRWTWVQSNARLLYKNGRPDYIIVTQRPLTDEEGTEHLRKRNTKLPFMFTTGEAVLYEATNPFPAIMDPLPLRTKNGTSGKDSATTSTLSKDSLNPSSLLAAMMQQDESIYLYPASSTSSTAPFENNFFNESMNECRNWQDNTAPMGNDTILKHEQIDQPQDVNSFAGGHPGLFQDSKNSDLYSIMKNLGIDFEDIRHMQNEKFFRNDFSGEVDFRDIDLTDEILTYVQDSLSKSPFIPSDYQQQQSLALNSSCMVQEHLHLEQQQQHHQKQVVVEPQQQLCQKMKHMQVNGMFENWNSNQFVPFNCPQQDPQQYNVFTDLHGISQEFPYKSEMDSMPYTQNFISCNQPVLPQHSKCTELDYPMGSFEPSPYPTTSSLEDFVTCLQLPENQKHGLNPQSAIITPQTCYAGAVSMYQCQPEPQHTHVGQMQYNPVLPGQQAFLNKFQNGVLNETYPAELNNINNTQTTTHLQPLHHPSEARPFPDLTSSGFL
# [7] = target: Mitogen-activated protein kinase 10 (Homo sapiens, UniProt P53779); assay: Dose response biochemical screening assay for inhibitors of c-Jun N-Terminal Kinase 3 (JNK3). [Related pubchem assays: 746 ]
# cells [8] = assay: cells
# Major prion protein = Major prion protein (Homo sapiens, UniProt P04156); assay type: functional, cell-based
# fMet-Leu-Phe receptor = target: T2, fMet-Leu-Phe receptor (Homo sapiens, UniProt P21462); assay: FPR ligands, dose response (AID 519); assay type: functional
# T2 sequence (P21462 whole entry): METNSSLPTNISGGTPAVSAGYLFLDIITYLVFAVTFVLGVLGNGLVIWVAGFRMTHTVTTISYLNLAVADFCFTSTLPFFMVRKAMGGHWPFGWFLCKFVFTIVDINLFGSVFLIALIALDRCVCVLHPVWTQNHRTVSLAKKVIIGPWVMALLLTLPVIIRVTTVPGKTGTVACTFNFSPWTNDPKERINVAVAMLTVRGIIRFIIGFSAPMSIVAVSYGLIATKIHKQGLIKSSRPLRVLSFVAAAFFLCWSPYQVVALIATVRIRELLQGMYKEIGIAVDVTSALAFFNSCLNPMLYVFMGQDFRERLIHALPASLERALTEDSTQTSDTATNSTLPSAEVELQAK
# [9] = P. falciparum late gametocyte killing, dose response, luminescence (AID 1117278); assay type: functional, cell-based;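 note: gametocytes exposed to compound for 24 hours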
# [10] = Jurkat T cell cytotoxicity, dose response, cytotoxicity control for P. falciparum gametocyte viability project, luminescence (AID 1117277); assay type: functional, cell-based;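 note: potency reflects loss of cellular ATP meaning fewer viable cells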
# [11] = T. cruzi growth inhibition in host cells, dose response, cell-based, plate reader, dry powder, set 2 (AID 652275); assay type: functional
# cells [12] = assay: cells; remark: listed apart in the source
# [13] = growth suppression of beta-catenin-knockout colon cells, dose response, cell-based, HCT116, human colon tumor (AID 1045); assay type: functional;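 note: HCT116 colon tumor cells with beta catenin knocked out; cells exposed to compound for 60 hours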
# [14] = target: T3, Oxysterols receptor LXR-beta (Homo sapiens, UniProt P55055); assay type: functional, cell-based;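 note: Cell-based luminescence dose-response assay of agonist activity at LXR, run as a confirmatory counterscreen to a daf-12 agonist screen; HEK293 cells with Gal4-LXR fusion and GAL4-driven luciferase reporter; agonist potency from rising luciferase signal of a Gal4-LXR reporter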
# T3 sequence (P55055 whole entry): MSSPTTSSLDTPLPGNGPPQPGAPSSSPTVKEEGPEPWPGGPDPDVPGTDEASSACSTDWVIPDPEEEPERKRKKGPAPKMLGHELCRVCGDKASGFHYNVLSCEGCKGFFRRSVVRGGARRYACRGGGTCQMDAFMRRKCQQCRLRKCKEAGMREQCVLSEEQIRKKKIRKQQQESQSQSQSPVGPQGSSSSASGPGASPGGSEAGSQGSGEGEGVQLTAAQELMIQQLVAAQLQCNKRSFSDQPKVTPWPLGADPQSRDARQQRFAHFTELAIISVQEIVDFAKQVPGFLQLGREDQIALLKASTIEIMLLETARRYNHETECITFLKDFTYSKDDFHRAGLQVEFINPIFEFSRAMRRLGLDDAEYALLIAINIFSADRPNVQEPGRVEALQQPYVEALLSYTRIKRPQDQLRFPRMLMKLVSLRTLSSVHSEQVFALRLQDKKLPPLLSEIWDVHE
# HT-1080 = assay: cytotoxicity in HT1080 fibrosarcoma cells, cell-based, fluorescence readout (AID 620); assay type: functional; details: Homo sapiens
# [15] = target: T4, Luciferin 4-monooxygenase (Photinus pyralis, UniProt P08659); assay: Counter Screen for Luciferase-based Assay Positives. [Related pubchem assays: 620, 618, 411 ]
# [16] = target: T4, Luciferin 4-monooxygenase; assay: firefly luciferase enzyme inhibitors, dose response, biochemical, luminescence (AID 1891)
# [17] = Luminescence Cell-Based Dose Confirmation HTS to Identify Inhibitors of Platelet Dense Granule Release. [Related pubchem assays: 1663 (Primary HTS), 1678 (Summary of Project)]; assay type: functional
# [18] = growth suppression of PTEN-null colon cells, dose response, cell-based, HCT116 PTEN knockout (AID 1047); assay type: functional;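 note: HCT116 colon tumor cells with PTEN knocked out; cells exposed to compound for 60 hours before readout; potency for loss of cell viability measured by luminescence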
smiles,measurement,setting,value
CCc1ccc(OCC(=O)NCC(c2ccc(Cl)cc2)N2CCCCC2)cc1 (configuration not stated),AC50,[1],8.41 µM (active)
same,AC50,[2],28.4 µM (active)
same,AC50,[3],3.95 µM (active)
same,AC50,[4],9.03 µM (active)
same,AC50,[5],4.51 µM (active)
CC(=O)Nc1cccc(OCC(=O)Nc2ccc(F)cc2)c1,EC50,[6],10.6 µM (not active)
O=C(NCc1nc2ccccc2[nH]1)c1cccs1,IC50,[7],43 µM (not active)
O=C(O)CCSc1ccc2ccccc2n1,IC50,[7],34.8 µM (not active)
same,IC50,cells [8],> 138 µM (inactive)
same,IC50,Major prion protein,3.19 µM (active)
COc1ccc(-c2cn3cccnc3n2)cc1NC(=O)C1CC1,Ki,fMet-Leu-Phe receptor,> 66.7 µM (inactive)
COc1cc(C2NC(=O)NC(C)=C2C(=O)OC2CCCC(C)C2)ccc1O (configuration not stated),IC50,[7],39.4 µM (not active)
NC(=O)c1c(Br)n(C2OC(CO)C(O)C2O)c2ncnc(N)c12 (configuration not stated),AC50,[1],7.68 µM (active)
same,AC50,[2],3.1 µM (active)
same,AC50,[3],3.32 µM (active)
same,AC50,[4],28 µM (active)
same,AC50,[5],5 µM (active)
CC(=O)Nc1ccc(N(C(=O)CNC(=O)c2ccco2)C(C(=O)NCC2CCCO2)c2ccccc2)cc1 (configuration not stated),IC50,[9],> 109 µM (inactive)
same,IC50,[10],> 83.3 µM (inactive)
CC(C)N1C[C@H](CNCc2ccc(Oc3ccccc3)cc2)Oc2c(NC(=O)c3ccncc3)cccc2C1=O,AC50,[11],0.0164 µM (active)
CC(C)N1CC[C@@H](CNCc2ccc(Oc3ccccc3)cc2)Oc2c(NC(=O)c3ccncc3)cccc2C1=O,AC50,[11],0.083 µM (active)
Cc1cccc(-c2ccc([C@H]3[C@H](CO)N4CCCCN(C(=O)c5cccnc5)C[C@@H]34)cc2)c1,AC50,[11],2.3 µM (active)
CCc1cc(/C(Cc2ccc3ccccc3n2)=N\O)c(O)cc1O,EC50,[6],> 3.39 µM (active)
CC(=O)SCC(=O)/N=c1\sc2cc(F)ccc2n1C,Ki,fMet-Leu-Phe receptor,22.8 µM (inactive)
Cc1ccc(-c2nc(N/N=C/c3ccncc3)c3ccccc3n2)cc1,EC50,cells [12],> 67.5 µM (inactive)
same,EC50,[13],43.7 µM (active)
same,EC50,[14],> 67.5 µM (inactive)
same,EC50,HT-1080,> 50 µM (not active)
same,EC50,[15],7.97 µM (active)
same,EC50,[16],0.158 µM (active)
same,EC50,[17],0.209 µM (active)
same,EC50,[18],59.3 µM (active)
